Data published in patent US20080051387A1, “TETRAHYDROPYRIDO[3,4-D]PYRIMIDINES AND RELATED ANALOGUES” (priority 2006, published 2008).

Target: T1, chimeric human H3 receptor (Homo sapiens, UniProt Q9Y5N1)
T1 construct: rat Galpha-i2 (Gnai2, rat); made in house; host or cells: Sf9 insect cells (baculovirus); P2 membranes
Assay: Chimeric human H3 receptor screening GTP binding assay (inhibition of histamine-stimulated GTP-gamma35S binding, Example 8)
Type: biochemical
Details: 1 h; assay described in Example 8; symbol "!" in column headed Ki; read-out: Ki ("!": percent inhibition of agonist-induced GTP-gammaS binding to H3)
In short: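 Compound tested at 4 μM against 1 μM histamine stimulation; 125 pM GTP-gamma35S binding measured by filtration and scintillation after 60 min at room temperature. Membranes from Sf9 cells expressing chimeric human H3 plus G-protein subunits, in Tris pH 7.4/NaCl/MgCl2/GDP buffer; values are % inhibition after nonspecific subtraction.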

T1 sequence (Q9Y5N1 with tags, fused parts or gaps): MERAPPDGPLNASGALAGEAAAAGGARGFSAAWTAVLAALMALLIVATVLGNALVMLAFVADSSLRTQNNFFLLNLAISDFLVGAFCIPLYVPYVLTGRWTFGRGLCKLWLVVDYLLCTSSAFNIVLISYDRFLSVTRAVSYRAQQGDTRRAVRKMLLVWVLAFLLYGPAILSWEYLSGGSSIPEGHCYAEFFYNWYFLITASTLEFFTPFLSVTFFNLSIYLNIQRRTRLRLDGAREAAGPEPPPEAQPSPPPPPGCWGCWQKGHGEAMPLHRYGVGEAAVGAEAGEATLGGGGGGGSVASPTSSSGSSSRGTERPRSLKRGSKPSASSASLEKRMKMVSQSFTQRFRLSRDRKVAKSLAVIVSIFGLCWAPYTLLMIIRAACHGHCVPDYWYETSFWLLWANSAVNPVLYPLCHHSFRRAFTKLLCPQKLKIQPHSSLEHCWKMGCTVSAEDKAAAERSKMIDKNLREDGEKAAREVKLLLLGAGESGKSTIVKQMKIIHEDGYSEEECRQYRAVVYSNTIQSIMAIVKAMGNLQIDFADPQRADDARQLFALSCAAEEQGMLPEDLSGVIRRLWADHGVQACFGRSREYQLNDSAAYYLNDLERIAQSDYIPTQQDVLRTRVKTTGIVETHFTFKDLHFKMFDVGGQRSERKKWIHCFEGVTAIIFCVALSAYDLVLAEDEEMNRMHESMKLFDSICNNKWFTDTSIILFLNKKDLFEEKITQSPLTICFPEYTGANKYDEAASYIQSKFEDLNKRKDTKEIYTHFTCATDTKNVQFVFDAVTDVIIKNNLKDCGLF

| SMILES | inhibition at 4 µM [%] |
| --- | --- |
| O=C(/C=C/c1ccc(-c2ccccc2)cc1)N1CCc2cnc(N3CCN(C4CCC4)CC3)nc2CC1 [Compound 556, 7-[(2E)-3-biphenyl-4-ylprop-2-enoyl]-2-(4-cyclobutylpiperazin-1-yl)-6,7,8,9-tetrahydro-5H-pyrimido[4,5-d]azepine] | ≥ 90 |
| COc1ccc(/C=C/C(=O)N2CCc3cnc(N4CCN(C5CCC5)CC4)nc3CC2)c(OC)c1OC [Compound 571, 2-(4-cyclobutylpiperazin-1-yl)-7-[(2E)-3-(2,3,4-trimethoxyphenyl)prop-2-enoyl]-6,7,8,9-tetrahydro-5H-pyrimido[4,5-d]azepine] | ≥ 90 |

Next, values leading:

| inhibition at 4 µM [%] | SMILES |
| --- | --- |
| ≥ 90 | CCCOc1ccccc1C(=O)N1CCc2cnc(N3CCN(C4CCC4)CC3)nc2CC1 [Compound 416, 2-(4-cyclobutylpiperazin-1-yl)-7-(2-propoxybenzoyl)-6,7,8,9-tetrahydro-5H-pyrimido[4,5-d]azepine] |
| ≥ 90 | O=C(c1cnccc1C(F)(F)F)N1CCc2cnc(N3CCN(C4CCC4)CC3)nc2CC1 [Compound 476, 2-(4-cyclobutylpiperazin-1-yl)-7-{[4-(trifluoromethyl)pyridin-3-yl]carbonyl}-6,7,8,9-tetrahydro-5H-pyrimido[4,5-d]azepine] |
| ≥ 90 | COc1ccc(Br)cc1/C=C/C(=O)N1CCc2cnc(N3CCN(C4CCC4)CC3)nc2CC1 [Compound 576, 7-[(2E)-3-(5-bromo-2-methoxyphenyl)prop-2-enoyl]-2-(4-cyclobutylpiperazin-1-yl)-6,7,8,9-tetrahydro-5H-pyrimido[4,5-d]azepine] |
| ≥ 90 | Cc1ccc(C(=O)N2CCc3cnc(N4CCN(C5CCC5)CC4)nc3CC2)cc1N [Compound 532, 5-{[2-(4-cyclobutylpiperazin-1-yl)-5,6,8,9-tetrahydro-7H-pyrimido[4,5-d]azepin-7-yl]carbonyl}-2-methylaniline] |
| ≥ 90 | Cc1cc(C(=O)N2CCc3cnc(N4CCN(C5CCC5)CC4)nc3CC2)cc(Cl)n1 [Compound 484, 7-(2-chloro-6-methylisonicotinoyl)-2-(4-cyclobutylpiperazin-1-yl)-6,7,8,9-tetrahydro-5H-pyrimido[4,5-d]azepine] |
| ≥ 90 | Cc1cc(C(=O)N2CCc3cnc(N4CCN(C5CCC5)CC4)nc3CC2)oc1C [Compound 468, 2-(4-cyclobutylpiperazin-1-yl)-7-(4,5-dimethyl-2-furoyl)-6,7,8,9-tetrahydro-5H-pyrimido[4,5-d]azepine] |

Same assay, conditions: 1 h; assay of Example 8; symbol "!" in column headed Ki; read-out: percent inhibition of agonist-induced GTP-gammaS binding to H3

| inhibition at 4 µM [%] | SMILES |
| --- | --- |
| ≥ 90 | CCSc1ccc(C(=O)N2CCc3cnc(N4CCN(C5CCC5)CC4)nc3CC2)cc1 [Compound 370, 2-(4-cyclobutylpiperazin-1-yl)-7-[4-(ethylthio)benzoyl]-6,7,8,9-tetrahydro-5H-pyrimido[4,5-d]azepine] |
| ≥ 90 | CCN1CCc2cnc(N3CCN(C4CCC4)CC3)nc2CC1 [Compound 245, 2-(4-cyclobutylpiperazin-1-yl)-7-ethyl-6,7,8,9-tetrahydro-5H-pyrimido[4,5-d]azepine] |
| ≥ 90 | COc1ccc(CC(=O)N2CCc3cnc(N4CCN(C5CCC5)CC4)nc3CC2)cc1OC [Compound 281, 2-(4-cyclobutylpiperazin-1-yl)-7-[(3,4-dimethoxyphenyl)acetyl]-6,7,8,9-tetrahydro-5H-pyrimido[4,5-d]azepine] |
| ≥ 90 | O=C(c1ccc2ccccc2c1)N1CCc2cnc(N3CCN(C4CCC4)CC3)nc2CC1 [Compound 361, 2-(4-cyclobutylpiperazin-1-yl)-7-(2-naphthoyl)-6,7,8,9-tetrahydro-5H-pyrimido[4,5-d]azepine] |
| ≥ 90 | O=C(C1CCC1)N1CCc2cnc(N3CCN(C4CCC4)CC3)nc2CC1 [Compound 216, 7-(cyclobutylcarbonyl)-2-(4-cyclobutylpiperazin-1-yl)-6,7,8,9-tetrahydro-5H-pyrimido[4,5-d]azepine] |
| ≥ 90 | COc1cccc(OCC(=O)N2CCc3cnc(N4CCN(C5CCC5)CC4)nc3CC2)c1 [Compound 324, 2-(4-cyclobutylpiperazin-1-yl)-7-[(3-methoxyphenoxy)acetyl]-6,7,8,9-tetrahydro-5H-pyrimido[4,5-d]azepine] |
| ≥ 90 | CCn1nc(C)cc1C(=O)N1CCc2cnc(N3CCN(C4CCC4)CC3)nc2CC1 [Compound 204, 2-(4-cyclobutylpiperazin-1-yl)-7-[(1-ethyl-3-methyl-1H-pyrazol-5-yl)carbonyl]-6,7,8,9-tetrahydro-5H-pyrimido[4,5-d]azepine] |
| ≥ 90 | O=C(Cc1c(Cl)cccc1Cl)N1CCc2cnc(N3CCN(C4CCC4)CC3)nc2CC1 [Compound 303, 2-(4-cyclobutylpiperazin-1-yl)-7-[(2,6-dichlorophenyl)acetyl]-6,7,8,9-tetrahydro-5H-pyrimido[4,5-d]azepine] |
| ≥ 90 | O=C(CC1CCCCC1)N1CCc2cnc(N3CCN(C4CCC4)CC3)nc2CC1 [Compound 211, 2-(4-cyclobutylpiperazin-1-yl)-7-(cyclohexylacetyl)-6,7,8,9-tetrahydro-5H-pyrimido[4,5-d]azepine] |

Same assay, conditions: symbol ! in Ki; test compound 4 μM, 1 μM histamine; read-out: percent inhibition of agonist-induced GTP-gammaS binding to H3

| inhibition at 4 µM [%] | SMILES |
| --- | --- |
| ≥ 90 | CCC(C)N1CCc2c(ncnc2N2CCN(C3CCC3)CC2)C1 (stereo not shown) [Compound 117, 7-sec-butyl-4-(4-cyclobutylpiperazin-1-yl)-5,6,7,8-tetrahydropyrido[3,4-d]pyrimidine] |
| ≥ 90 | Cc1cc(C(C)N2CCc3c(ncnc3N3CCN(C4CCC4)CC3)C2)n(C)n1 (stereo not shown) [Compound 112, 4-(4-cyclobutylpiperazin-1-yl)-7-[1-(1,3-dimethyl-1H-pyrazol-5-yl)ethyl]-5,6,7,8-tetrahydropyrido[3,4-d]pyrimidine] |
| ≥ 90 | c1nc2c(c(N3CCN(C4CCC4)CC3)n1)CCN(Cc1ccc3c(c1)OCCO3)C2 [Compound 92, 4-(4-cyclobutylpiperazin-1-yl)-7-(2,3-dihydro-1,4-benzodioxin-6-ylmethyl)-5,6,7,8-tetrahydropyrido[3,4-d]pyrimidine] |
| ≥ 90 | Cc1cc(C(=O)N2CCc3c(ncnc3N3CCN(C4CCC4)CC3)C2)nn1C [Compound 39, 4-(4-cyclobutylpiperazin-1-yl)-7-[(1,5-dimethyl-1H-pyrazol-3-yl)carbonyl]-5,6,7,8-tetrahydropyrido[3,4-d]pyrimidine] |
| ≥ 90 | Cc1cccc(CN2CCc3ncnc(N4CCN(C5CCC5)CC4)c3CC2)c1 [Compound 148, 4-(4-cyclobutylpiperazin-1-yl)-7-(3-methylbenzyl)-6,7,8,9-tetrahydro-5H-pyrimido[4,5-d]azepine] |
| ≥ 90 | CC(c1cnc2ccccc2c1)N1CCc2c(ncnc2N2CCN(C3CCC3)CC2)C1 (stereo not shown) [Compound 109, 4-(4-cyclobutylpiperazin-1-yl)-7-(1-quinolin-3-ylethyl)-5,6,7,8-tetrahydropyrido[3,4-d]pyrimidine] |
| ≥ 90 | CC(C)c1ccc(CN2CCc3nc(N4CCN(C5CCC5)CC4)ncc3C2)cc1 [Compound 625, 2-(4-cyclobutylpiperazin-1-yl)-6-(4-isopropylbenzyl)-5,6,7,8-tetrahydropyrido[4,3-d]pyrimidine] |
| ≥ 90 | c1nc(N2CCN(C3CCC3)CC2)nc2c1CN(CC1CC1)CC2 [Compound 634, 2-(4-cyclobutylpiperazin-1-yl)-6-(cyclopropylmethyl)-5,6,7,8-tetrahydropyrido[4,3-d]pyrimidine] |
